Non-standard residues stand in square brackets, D forms with d. Residues, ends and D or L forms follow the SMILES beside them. *: point of attachment. FITC = O=C1OC2(c3ccc(O)cc3Oc3cc(O)ccc32)c2ccc(NC(=S)*)cc21; Phe(4-Me) = Cc1ccc(C[C@H](N)C(=O)O)cc1
How the values were obtained:
Rluc-ADGRG2-ΔGPS-β N667A = biological target: T1, Rluc-ADGRG2-ΔGPS-β N667A (Mus musculus, UniProt Q8CJ12, N681A); experiment: BRET binding of FITC-VPM-p15; conditions: mutant N667A
T1 construct: the entire ECD (including the entire GPS motif) was removed (ADGRG2-ΔGPS-β); expressed in transfected cells; host or cells: HEK293
T1 sequence (Q8CJ12 618-1009 N681A limits assumed): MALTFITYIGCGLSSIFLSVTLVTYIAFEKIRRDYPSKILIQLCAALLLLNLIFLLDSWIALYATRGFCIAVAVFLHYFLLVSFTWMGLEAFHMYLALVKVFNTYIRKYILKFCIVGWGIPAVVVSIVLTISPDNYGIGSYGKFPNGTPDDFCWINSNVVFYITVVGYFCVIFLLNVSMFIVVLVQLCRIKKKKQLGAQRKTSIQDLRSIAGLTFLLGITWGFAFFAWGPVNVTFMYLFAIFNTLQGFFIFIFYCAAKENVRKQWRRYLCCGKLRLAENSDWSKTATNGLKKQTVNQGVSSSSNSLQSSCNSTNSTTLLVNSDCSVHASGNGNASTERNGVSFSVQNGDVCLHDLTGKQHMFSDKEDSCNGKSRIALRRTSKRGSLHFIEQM
Protocol: (§1) The binding capacities of ADGRG2 WT or its mutants for VPM-p15 were determined by BRET assay, which has been used in previous studies ([27], [28], [29]). We fused the N terminus of ADGRG2 with a Rluc fragment and coupled FITC to the C terminus of VPM-p15 to facilitate BRET measurement. We stimulated the HEK293 cells transfected with Rluc-ADGRG2-ΔGPS-β wildtype (WT) or mutants by increasing the concentration of FITC-conjugated VPM-p15, and their binding abilities were determined by fitting the data with the saturation curves.
(§2) In the detection of binding capacities of ADGRG2 WT or its mutants for VPM-p15, HEK293 cells were transfected with Rluc-ADGRG2-ΔGPS-β or mutants. Transfected cells were stimulated by increasing the concentration of FITC-conjugated VPM-p15. Binding capacities were determined by BRET, EC50 values of ADGRG2 WT and its mutants for binding VPM-p15 were calculated by GraphPad, and data were normalized by EC50 of WT.

Rluc-ADGRG2-ΔGPS-β F838A = biological target: T2, Rluc-ADGRG2-ΔGPS-β F838A (Mus musculus, UniProt Q8CJ12, F852A); experiment: BRET binding of FITC-VPM-p15; conditions: mutant F838A
T2 construct: expressed in transfected cells; host or cells: HEK293
T2 sequence (Q8CJ12 614-1009 F852A): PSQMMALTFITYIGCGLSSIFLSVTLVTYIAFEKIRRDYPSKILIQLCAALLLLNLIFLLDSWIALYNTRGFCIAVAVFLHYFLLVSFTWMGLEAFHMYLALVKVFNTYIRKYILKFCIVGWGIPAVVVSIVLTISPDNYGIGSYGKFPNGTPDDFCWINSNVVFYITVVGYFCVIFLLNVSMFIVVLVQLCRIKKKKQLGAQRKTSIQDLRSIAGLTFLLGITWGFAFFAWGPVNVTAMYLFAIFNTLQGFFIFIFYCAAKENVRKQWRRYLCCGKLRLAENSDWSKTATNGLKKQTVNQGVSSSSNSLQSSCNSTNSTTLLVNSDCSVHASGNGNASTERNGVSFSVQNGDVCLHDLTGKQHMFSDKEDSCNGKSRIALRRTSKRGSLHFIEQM
Protocol: as §1, §2

Rluc-ADGRG2-ΔGPS-β V731A = biological target: T3, Rluc-ADGRG2-ΔGPS-β V731A (Mus musculus, UniProt Q8CJ12, V745A); experiment: BRET binding of FITC-VPM-p15; conditions: mutant V731A
T3 construct: the entire ECD (including the entire GPS motif) was removed (ADGRG2-ΔGPS-β); expressed in transfected cells; host or cells: HEK293
T3 sequence (Q8CJ12 618-1009 V745A limits assumed): as the sequence (Q8CJ12 618-1009 N681A limits assumed) above, with A64N, V128A counted along it
Protocol: as §1, §2

Rluc-ADGRG2-ΔGPS-β W662A = biological target: T4, Rluc-ADGRG2-ΔGPS-β W662A (Mus musculus, UniProt Q8CJ12, W676A); experiment: BRET binding of FITC-VPM-p15; conditions: mutant W662A
T4 construct: the entire ECD (including the entire GPS motif) was removed (ADGRG2-ΔGPS-β); expressed in transfected cells; host or cells: HEK293
T4 sequence (Q8CJ12 618-1009 W676A limits assumed): as the sequence (Q8CJ12 618-1009 N681A limits assumed) above, with W59A, A64N counted along it
Protocol: as §1, §2

Rluc-ADGRG2-ΔGPS-β F829A = biological target: T5, Rluc-ADGRG2-ΔGPS-β F829A (Mus musculus, UniProt Q8CJ12, F843A); experiment: BRET binding of FITC-VPM-p15; conditions: mutant F829A
T5 construct: expressed in transfected cells; host or cells: HEK293
T5 sequence (Q8CJ12 614-1009 F843A): as the sequence (Q8CJ12 614-1009 F852A) above, with F230A, A239F counted along it
Protocol: as §1, §2

Rluc-ADGRG2-ΔGPS-β WT = biological target: T6, Rluc-ADGRG2-ΔGPS-β WT (Mus musculus, UniProt Q8CJ12); experiment: BRET binding of FITC-VPM-p15; conditions: receptor WT
T6 construct: the entire ECD (including the entire GPS motif) was removed (ADGRG2-ΔGPS-β); expressed in transfected cells; host or cells: HEK293
T6 sequence (Q8CJ12 618-1009 limits assumed, stated change not applied): as the sequence (Q8CJ12 618-1009 N681A limits assumed) above, with A64N counted along it
Protocol: as §1, §2

Rluc-ADGRG2-ΔGPS-β N759A = biological target: T7, Rluc-ADGRG2-ΔGPS-β N759A (Mus musculus, UniProt Q8CJ12, N773A); experiment: BRET binding of FITC-VPM-p15; conditions: mutant N759A
T7 construct: the entire ECD (including the entire GPS motif) was removed (ADGRG2-ΔGPS-β); expressed in transfected cells; host or cells: HEK293
T7 sequence (Q8CJ12 618-1009 N773A limits assumed): as the sequence (Q8CJ12 618-1009 N681A limits assumed) above, with A64N, N156A counted along it
Protocol: as §1, §2

Rluc-ADGRG2-ΔGPS-β S661A = biological target: T8, Rluc-ADGRG2-ΔGPS-β S661A (Mus musculus, UniProt Q8CJ12, S675A); experiment: BRET binding of FITC-VPM-p15; conditions: mutant S661A
T8 construct: the entire ECD (including the entire GPS motif) was removed (ADGRG2-ΔGPS-β); expressed in transfected cells; host or cells: HEK293
T8 sequence (Q8CJ12 618-1009 S675A limits assumed): as the sequence (Q8CJ12 618-1009 N681A limits assumed) above, with S58A, A64N counted along it
Protocol: as §1, §2

Rluc-ADGRG2-ΔGPS-β C614A = biological target: T9, Rluc-ADGRG2-ΔGPS-β C614A (Mus musculus, UniProt Q8CJ12, C628A); experiment: BRET binding of FITC-VPM-p15; conditions: mutant C614A
T9 construct: the entire ECD (including the entire GPS motif) was removed (ADGRG2-ΔGPS-β); expressed in transfected cells; host or cells: HEK293
T9 sequence (Q8CJ12 618-1009 C628A limits assumed): as the sequence (Q8CJ12 618-1009 N681A limits assumed) above, with C11A, A64N counted along it
Protocol: as §1, §2

Rluc-ADGRG2-ΔGPS-β Y765A = biological target: T10, Rluc-ADGRG2-ΔGPS-β Y765A (Mus musculus, UniProt Q8CJ12, Y779A); experiment: BRET binding of FITC-VPM-p15; conditions: mutant Y765A
T10 construct: the entire ECD (including the entire GPS motif) was removed (ADGRG2-ΔGPS-β); expressed in transfected cells; host or cells: HEK293
T10 sequence (Q8CJ12 618-1009 Y779A limits assumed): as the sequence (Q8CJ12 618-1009 N681A limits assumed) above, with A64N, Y162A counted along it
Protocol: as §1, §2

Rluc-ADGRG2-ΔGPS-β V774A = biological target: T11, Rluc-ADGRG2-ΔGPS-β V774A (Mus musculus, UniProt Q8CJ12, V788A); experiment: BRET binding of FITC-VPM-p15; conditions: mutant V774A
T11 construct: expressed in transfected cells; host or cells: HEK293
T11 sequence (Q8CJ12 614-1009 V788A): as the sequence (Q8CJ12 614-1009 F852A) above, with V175A, A239F counted along it
Protocol: as §1, §2

Rluc-ADGRG2-ΔGPS-β F845A = biological target: T12, Rluc-ADGRG2-ΔGPS-β F845A (Mus musculus, UniProt Q8CJ12, F859A); experiment: BRET binding of FITC-VPM-p15; conditions: mutant F845A
T12 construct: expressed in transfected cells; host or cells: HEK293
T12 sequence (Q8CJ12 614-1009 F859A): as the sequence (Q8CJ12 614-1009 F852A) above, with A239F, F246A counted along it
Protocol: as §1, §2

ADGRG2-ΔGPS-β C614A = biological target: T13, ADGRG2-ΔGPS-β C614A (Mus musculus, UniProt Q8CJ12, C628A); experiment: GloSensor cAMP assay; format: cell-based; conditions: mutant C614A; HEK293, cAMP Glosensor
T13 construct: expressed in transfected cells; host or cells: HEK293
T13 sequence (Q8CJ12 614-1009 C628A): as the sequence (Q8CJ12 614-1009 F852A) above, with C15A, A239F counted along it
Text: (§3) Wildtype ADGRG2 full-length (ADGRG2-FL) was cloned from mouse total cDNA libraries using the following primers: forward, […]; reverse, […], and then ADGRG2-FL, ADGRG2 C-terminal truncation mutant (ADGRG2-β), and ADGRG2-ΔGPS-β (the entire ECD of ADGRG2 was deleted) were subcloned into the pcDNA3.1 expression vector. The ADGRG2-ΔGPS-β mutants (T610A, Y611A, C614A, S661A, W662A, I663A, L665A, Y666A，N667A, F671A, L679A, L683A, I730A, V731A, F741A, F747A, W757A, I758A, N759A, S760A, V762A, F764A, Y765A, V768A, V769A, F772A, V774A, W824A, F826A, F828A, F829A, V834A, V836A, F838A, M839A, I844A, F845A) were generated using a QuikChange Mutagenesis Kit (Stratagene). All mutations were verified by DNA sequencing.
(§4) The Glosensor cAMP assay was performed as described ([6], [39], [40]). HEK293 cells were transfected with the GloSensor plasmid and the desired expression plasmids in 24-well dishes. Twenty-four hours after transfection, the cells were plated on 96-well plates at a cell density of 20,000 cells/well. The cells were maintained in Dulbecco’s modified Eagle’s medium for another 24 h, washed with PBS, and then incubated with 100 μl of solution containing 10% fetal bovine serum, 2% (v/v) GloSensor cAMP reagent, and 88% CO2-independent medium in each well for 2 h. The cAMP signal was examined using a luminescence counter (Mithras LB 940).

ADGRG2-ΔGPS-β Y611A = biological target: T14, ADGRG2-ΔGPS-β Y611A (Mus musculus, UniProt Q8CJ12, Y625A); experiment: GloSensor cAMP assay; format: cell-based; conditions: mutant Y611A; HEK293, cAMP Glosensor
T14 construct: expressed in transfected cells; host or cells: HEK293
T14 sequence (Q8CJ12 614-1009 Y625A): as the sequence (Q8CJ12 614-1009 F852A) above, with Y12A, A239F counted along it
Text: as §3, §4

[1] = Kd(mutated ADGRG2-ΔGPS-β)/Kd(WT)

CC[C@H](C)[C@H](NC(=O)CNC(=O)[C@H](Cc1ccc(C)cc1)NC(=O)[C@H](CO)NC(=O)[C@@H](N)C(C)C)C(=O)N[C@@H](CC(C)C)C(=O)N[C@@H](CC(C)C)C(=O)N[C@@H](CC(=O)O)C(=O)N[C@@H](CC(C)C)C(=O)N[C@@H](CO)C(=O)N[C@@H](CCCNC(=N)N)C(=O)N[C@H](C(=O)N[C@@H](CO)C(=O)N[C@@H](CC(C)C)C(=O)N1CCC[C@H]1C(=O)N[C@@H](CCCCNC(=S)Nc1ccc2c(c1)C(=O)OC21c2ccc(O)cc2Oc2cc(O)ccc21)C(=O)O)[C@@H](C)O [FITC-VPM-p15] (H-VS[Phe(4-Me)]GILLDLSRTSLPK(FITC)-OH; N-terminus and C-terminus assumed) was tested, and the Fmut (Rluc-ADGRG2-ΔGPS-β N667A; [1]) was 0.975, the Bmax (Rluc-ADGRG2-ΔGPS-β N667A; binding Bmax (BRET)) was 0.803±0.028 and the Fmut (Rluc-ADGRG2-ΔGPS-β F838A; [1]) was 0.819. It also gave a Bmax (Rluc-ADGRG2-ΔGPS-β F838A; binding Bmax (BRET)) of 0.793±0.022, a Bmax (Rluc-ADGRG2-ΔGPS-β V731A) of 0.7903±0.018 and a Fmut (Rluc-ADGRG2-ΔGPS-β W662A; [1]) of 1.128. It also gave a Bmax (Rluc-ADGRG2-ΔGPS-β W662A; binding Bmax (BRET)) of 0.808±0.047, a Fmut (Rluc-ADGRG2-ΔGPS-β F829A; [1]) of 0.344 and a Bmax (Rluc-ADGRG2-ΔGPS-β F829A; binding Bmax (BRET)) of 0.817±0.050. It also gave a Fmut (Rluc-ADGRG2-ΔGPS-β WT; [1]) of 1.000, a Bmax (Rluc-ADGRG2-ΔGPS-β WT; binding Bmax (BRET)) of 0.809±0.015 and a Fmut (Rluc-ADGRG2-ΔGPS-β N759A; [1]) of 1.655. It also gave a Bmax (Rluc-ADGRG2-ΔGPS-β N759A; binding Bmax (BRET)) of 0.713±0.011, a Fmut (Rluc-ADGRG2-ΔGPS-β S661A; [1]) of 0.832 and a Bmax (Rluc-ADGRG2-ΔGPS-β S661A; binding Bmax (BRET)) of 0.6895±0.021. The Fmut (Rluc-ADGRG2-ΔGPS-β C614A; [1]) was 1.382, the Bmax (Rluc-ADGRG2-ΔGPS-β C614A; binding Bmax (BRET)) was 0.7934±0.0241 and the Fmut (Rluc-ADGRG2-ΔGPS-β Y765A; [1]) was 0.967. The Bmax (Rluc-ADGRG2-ΔGPS-β Y765A; binding Bmax (BRET)) was 0.796±0.013, the Fmut (Rluc-ADGRG2-ΔGPS-β V774A; [1]) was 1.149 and the Bmax (Rluc-ADGRG2-ΔGPS-β V774A; binding Bmax (BRET)) was 0.820±0.032. The Fmut (Rluc-ADGRG2-ΔGPS-β F845A; [1]) was 1.452 and the Bmax (Rluc-ADGRG2-ΔGPS-β F845A; binding Bmax (BRET)) was 0.749±0.071.

For CC[C@H](C)[C@H](NC(=O)CNC(=O)[C@H](Cc1ccc(C)cc1)NC(=O)[C@H](CO)NC(=O)[C@@H](N)C(C)C)C(=O)N[C@@H](CC(C)C)C(=O)N[C@@H](CC(C)C)C(=O)N[C@@H](CC(=O)O)C(=O)N[C@@H](CC(C)C)C(=O)N[C@@H](CO)C(=O)N[C@@H](CCCNC(=N)N)C(=O)N[C@H](C(=O)N[C@@H](CO)C(=O)N[C@@H](CC(C)C)C(=O)N1CCC[C@H]1C(=O)O)[C@@H](C)O [VPM-p15] (H-VS[Phe(4-Me)]GILLDLSRTSLP-OH), the EC50 (ADGRG2-ΔGPS-β C614A) was 2.17 µM and the EC50 (ADGRG2-ΔGPS-β Y611A) was 1.06 µM.

From publication PMC7948503, “Optimization of a peptide ligand for the adhesion GPCR ADGRG2 provides a potent tool to explore receptor biology” (The Journal of Biological Chemistry, 2020)
